Data: patent publication US5883133A, “Substituted cinnamic acid guanidides, a process for their preparation, their use as medicaments or diagnostic agents and medicaments comprising them” (priority 1995, dated 1999)
Counter-ions that a name gives are not always drawn.

Columns and labels:
[1] = molecular target: T1, Na^+ /H^+ exchanger of rabbit erythrocytes (Oryctolagus cuniculus, UniProt P23791); experiment: Inhibition of the Na+/H+ exchanger of rabbit erythrocytes (amiloride-sensitive sodium influx, flame photometry); format: cell-based, rabbit (White New Zealand); conditions: pH 7.4, 37° C., hyperosmolar salt/sucrose medium
T1 construct: exchanger of rabbit erythrocytes; endogenous in cells; host or cells: erythrocytes from ear-artery blood of White New Zealand rabbits (Ivanovas) fed 2% cholesterol for six weeks
T1 sequence (P23791 whole entry): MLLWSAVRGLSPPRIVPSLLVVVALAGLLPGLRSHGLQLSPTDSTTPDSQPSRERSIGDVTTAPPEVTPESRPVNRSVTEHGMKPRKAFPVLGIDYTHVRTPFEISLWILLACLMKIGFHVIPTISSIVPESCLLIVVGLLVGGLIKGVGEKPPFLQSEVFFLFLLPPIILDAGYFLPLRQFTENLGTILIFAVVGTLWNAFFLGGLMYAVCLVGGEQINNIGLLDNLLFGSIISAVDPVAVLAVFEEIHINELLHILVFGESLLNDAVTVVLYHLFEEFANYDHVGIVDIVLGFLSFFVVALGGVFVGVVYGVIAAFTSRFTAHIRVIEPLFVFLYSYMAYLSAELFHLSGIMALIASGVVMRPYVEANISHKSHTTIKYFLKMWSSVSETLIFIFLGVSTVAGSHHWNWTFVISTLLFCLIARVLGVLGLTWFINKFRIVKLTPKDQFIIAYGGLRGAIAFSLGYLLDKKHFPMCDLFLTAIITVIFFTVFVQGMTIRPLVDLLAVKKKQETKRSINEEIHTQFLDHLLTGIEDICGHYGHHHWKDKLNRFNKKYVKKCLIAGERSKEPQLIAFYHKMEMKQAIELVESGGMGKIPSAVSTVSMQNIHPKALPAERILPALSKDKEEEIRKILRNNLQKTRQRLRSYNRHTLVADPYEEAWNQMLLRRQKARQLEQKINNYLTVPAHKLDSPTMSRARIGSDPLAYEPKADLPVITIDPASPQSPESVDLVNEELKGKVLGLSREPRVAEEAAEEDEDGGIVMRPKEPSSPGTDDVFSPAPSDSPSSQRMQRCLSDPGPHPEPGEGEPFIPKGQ
Source text: Inhibitors of the Na^+ /H^+ exchanger of rabbit erythrocytes:
White New Zealand rabbits (Ivanovas) were given a standard diet with 2% of cholesterol for six weeks in order to activate the Na^+ /H^+ exchange so that the Na^+ influx into the erythrocytes via Na^+ /H^+ exchange can be determined by flame photometry. The blood was taken from the ear arteries and rendered uncoagulable by 25 IU/ml of heparin potassium. A portion of each sample was used for duplication determination of the hematocrit by centrifugation. Aliquots of in each case 100 μl were used for measurement of the initial Na^+ content of the erythrocytes.
To determine the amiloride-sensitive sodium influx, 100 μl of each blood sample were each incubated at pH 7.4 and 37° C. in 5 ml of a hyperosmolar salt/sucrose medium (mmol/l: 140 NaCl, 3 KCl, 150 sucrose, 0.1 ouabain, 20 tris-hydroxymethyl-aminomethane). The erythrocytes were then washed three times with ice-cold MgCl2 /ouabain solution (mmol/l: 112 MgCl2, 0.1 ouabain) and hemolyzed in 2.0 ml of distilled water. The intracellular sodium content was determined by flame photometry.
The net Na^+ influx was calculated from the difference between the initial sodium levels and the sodium content of the erythrocytes after incubation. […]

[2] = system: rat hearts; conditions: isolated rat hearts, cited from earlier work

Row | IC50 [1] | SMILES | further results
1 | < 1000 nM | C/C(=C\c1ccc(N(C)C)cc1)C(=O)N=C(N)N [Example 1, E-3-(4-Dimethylaminophenyl)-2-methyl-propenoic acid guanidide hydrochloride] | –
2 | < 1000 nM | C/C(=C\c1ccc(OCCCN(C)C)cc1)C(=O)N=C(N)N [Example 2, E-3-[4-(3-Dimethylaminopropoxy)phenyl)-2-methyl-propenoic acid guanidide dihydrochloride] | –
3 | – | NC(N)=NC(=O)c1nc(Cl)c(N)nc1N [amiloride] | suppression of artificially induced ventricular fibrillation ([2]; Eur. Heart J. 9 (suppl. 1): 167 (1988)): suppressed completely
4 | – | CCN(c1nc(N)c(C(=O)N=C(N)N)nc1Cl)C(C)C [ethylisopropylanmiloride, Ethylisopropylamiloride] | potency in ventricular fibrillation model relative to amiloride ([2]; compared with amiloride): even more potent than amiloride
